Consider nine compounds from paper PMC13022995 (Environmental science & technology, 2025).

In one data set the test system is HepG2 cells. Format: cell-based, human.
In another data set the test system is p53RE-bla HCT116 cells. It counts as cell-based, human.
Data set [1] concerns liver, renal, bladder, and lung cells.
Data set [2] concerns hTERT-MSCs and aortic ECs (TeloHAECs) co-culture. Format: cell-based, human.

Where two headings read alike, the source gives them in different places.

For `O=[As]O[As]=O` (stereo not drawn) [arsenic oxide], the ROS induction result in the data set on HepG2 cells (HepG2 cells) is “not detected”.
Regarding `O.O.O.O.O=S(=O)([O-])[O-].[Be+2]` [beryllium sulfate tetrahydrate], the p53 activation result in the data set with p53RE-bla HCT116 cells is recorded as “activated p53”. Moreover, the ROS induction entry with HepG2 cells (HepG2 cells) is given as “not detected”.
Regarding `CC(=O)[O-].CC(=O)[O-].O.O.[Cd+2]` [cadmium acetate dihydrate, Cadmium acetate dihydrate], the “cytotoxicity of single compound” value in data set [1] is recorded as “cytotoxic by themselves”. Moreover, the angiogenesis induction result in data set [2] is “independently induce angiogenesis”.
Turning to `[Cl][Cd][Cl]` [cadmium chloride], the “cytotoxicity of single compound” value in data set [1] is given as “cytotoxic by themselves”. For the same compound, the angiogenesis induction result in data set [2] is “independently induce angiogenesis”.
For the compound `O.O.O.O.O=[N+]([O-])[O-].O=[N+]([O-])[O-].[Cd+2]` [cadmium nitrate tetrahydrate, Cadmium nitrate tetrahydrate], the “cytotoxicity of single compound” value in data set [1] was “cytotoxic by themselves”. Besides, the angiogenesis induction entry in data set [2] was “independently induce angiogenesis”. Besides, the oxidative stress-inducing capability result in the data set with HepG2 cells (among components of Mixture 1, Supporting Table 3) is given as “exhibited oxidative stress-inducing capability”.
For the compound `CC(=O)[O-].CC(=O)[O-].O.O.O.[Pb+2]` [lead(II) acetate trihydrate], the “cytotoxicity of single compound” value in data set [1] was “cytotoxic by themselves”.
In the case of `[Cl][Pb][Cl]` [lead(II) chloride, Lead(II) chloride], in data set [1], the “cytotoxicity of single compound” value is reported as “cytotoxic by themselves”. The angiogenesis induction entry in data set [2] is “induced angiogenesis”.
As for `O.O.O.O.O.O.O=S(=O)([O-])[O-].[Ni+2]` [nickel sulfate, nickel(II) sulfate hexahydrate], the ROS induction result with HepG2 cells is “not detected”.
Take `O=[N+]([O-])c1ccc([As](=O)(O)O)cc1` [nitarsone, Nitarsone]: the angiogenesis induction entry in data set [2] is given as “induced angiogenesis”.
